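96-well plates; 48 h exposure; 5 concentrations. Endpoints by linear interpolation between flanking doses. Not reached: highest tested concentration assigned. At the GI50, growth is halved.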 Calls of active or inactive are those of the source. Rule as the data show it: active = GI50 up to about 1.1 µM and inactive = higher.
How the values were obtained:
Test in all cases: NCI-60 cell line screen, 48 h
[1] = tested on: SF-539
[2] = tested on: SF-295
[3] = tested on: A549
[4] = tested on: SK-MEL-28
[5] = tested on: SK-OV-3
[6] = tested on: UACC-62
[7] = tested on: NCI-H460
[8] = tested on: OVCAR-5
[9] = tested on: HCT-116
[10] = tested on: OVCAR-4
[11] = tested on: BT-549
[12] = tested on: SNB-19
[13] = tested on: A498
[14] = tested on: SK-MEL-2
[15] = tested on: MDA-N
[16] = tested on: MDA-MB-231
[17] = tested on: COLO 205
[18] = tested on: KM12
[19] = tested on: EKVX
[20] = tested on: MCF7
[21] = tested on: TK-10
[22] = tested on: SF-268
[23] = tested on: MOLT-4
[24] = tested on: ACHN
[25] = tested on: NCI-H226
[26] = tested on: HOP-92
[27] = tested on: SNB-75
[28] = tested on: Malme-3M
[29] = tested on: T47D
[30] = tested on: HCT-15
[31] = tested on: CCRF-CEM
[32] = tested on: SW-620
[33] = tested on: OVCAR-3
[34] = tested on: CAKI-1
[35] = tested on: HT-29
[36] = tested on: IGROV-1
[37] = tested on: OVCAR-8
[38] = tested on: UACC-257
[39] = tested on: 786-0
[40] = tested on: Hs-578T
[41] = tested on: UO-31
[42] = tested on: K562
[43] = tested on: HL-60
[44] = tested on: NCI-H23
[45] = tested on: SK-MEL-5
[46] = tested on: PC-3
[47] = tested on: M14
[48] = tested on: U-251
[49] = tested on: NCI-H522
[50] = tested on: NCI/ADR-RES
[51] = tested on: LOX IMVI
[52] = tested on: SN12C
[53] = tested on: HCC 2998
[54] = tested on: RXF 393
[55] = tested on: RPMI-8226
[56] = tested on: SR
[57] = tested on: HOP-62
[58] = tested on: DU-145
[59] = tested on: MDA-MB-435

Measured: GI50

O=c1cc(N=P(c2ccccc2)(c2ccccc2)c2ccccc2)n(-c2ccccc2)c(=O)n1-c1ccccc1
inactive: [1] 3.76 µM | [2] 20.7 µM | [3] 6.25 µM | [4] 23.9 µM | [5] 22.2 µM | [6] 11.4 µM | [7] 4.15 µM | [8] 23.2 µM | [9] 13.3 µM | [10] 4.95 µM | [11] 14.5 µM | [12] 17.7 µM | [13] 3.18 µM | [14] 13.8 µM | [15] 7.64 µM | [16] 8.18 µM | [17] 6.56 µM | [18] 14.9 µM | [19] 10.4 µM | [20] 6.03 µM | [21] 15.2 µM | [22] 29 µM | [23] 3.48 µM | [24] 4.33 µM | [25] 3.92 µM | [26] 9.02 µM | [27] 10.1 µM | [28] 11.8 µM | [29] 8.85 µM | [31] 8.63 µM | [32] 7.45 µM | [33] 8.17 µM | [34] 12.7 µM | [35] 15.9 µM | [36] 17.9 µM | [37] 12.3 µM | [38] 23.8 µM | [39] 6.3 µM | [40] 18.2 µM | [41] 4.92 µM | [42] 3.31 µM | [43] 5.06 µM | [44] 5.85 µM | [45] 10.3 µM | [46] 3.94 µM | [47] 8.79 µM | [48] 8.02 µM | [49] 14.4 µM | [50] 21.8 µM | [51] 8.77 µM | [52] 11.1 µM | [53] 8.26 µM | [54] 1.53 µM | [55] 4.92 µM | [56] 4.28 µM | [57] 6.52 µM | [58] 9.51 µM | [59] 5.2 µM
3.38 µM: [30]

CC(=O)OCC1OC(n2c(-c3ccc(C)cc3)cc(-c3ccco3)c(C#N)c2=S)C(OC(C)=O)C(OC(C)=O)C1OC(C)=O (configuration not stated)
inactive: [1] 17.4 µM | [2] > 100 µM | [3] 69.5 µM | [4] > 100 µM | [5] 29.9 µM | [6] 18.2 µM | [7] 24.7 µM | [8] > 100 µM | [9] 29 µM | [10] > 100 µM | [11] 38.7 µM | [12] 32.5 µM | [13] 61.7 µM | [14] 41.7 µM | [15] > 100 µM | [16] 22.9 µM | [17] > 100 µM | [18] > 100 µM | [19] > 100 µM | [20] 40.6 µM | [21] 52.1 µM | [22] 56.8 µM | [23] > 100 µM | [24] 75.5 µM | [25] 25.2 µM | [26] 16.6 µM | [27] 25.1 µM | [28] > 100 µM | [29] 20.6 µM | [31] > 100 µM | [32] > 100 µM | [33] > 100 µM | [34] > 100 µM | [35] > 100 µM | [36] 98.4 µM | [37] 25.8 µM | [38] > 100 µM | [40] 27.9 µM | [41] 28.9 µM | [42] > 100 µM | [43] > 100 µM | [44] 48 µM | [45] 65.2 µM | [46] > 100 µM | [47] 83.9 µM | [48] 33.8 µM | [49] 50.4 µM | [50] 84.3 µM | [51] > 100 µM | [52] > 100 µM | [53] > 100 µM | [54] 40.6 µM | [55] > 100 µM | [56] > 100 µM | [57] 42.7 µM | [58] > 100 µM | [59] > 100 µM
> 100 µM: [30]

Reference: ChEMBL document CHEMBL1201862, “PubChem BioAssay data set” (2004)
